pEC50: −log10 of the molar value.

Common to all, as to assay type: functional, cell-based
Experiment [1] addresses T1, Cannabinoid receptor 2 (Homo sapiens, UniProt P34972). Nature of the experiment: Agonist activity at human CB2 receptor expressed in PathHunter CHO-K1 CNR2 beta-arrestin cells assessed as beta-arrestin recruitment incubated for 3 hrs by plate reader analysis. In general terms: Activated receptors often draw arrestin, which recruitment assays turn into a signal.
Experiment [2] concerns the target T1, Cannabinoid receptor 2. Nature of the experiment: Agonist activity at human CB2 receptor expressed in CHO cells assessed as inhibition of accumulation of forskolin-stimulated cAMP level incubated for 35 mins by chemiluminescence based assay.
Experiment [3] deals with T1, Cannabinoid receptor 2. Put plainly: Agonist activity at human CB2 receptor expressed in CHO cells assessed as inhibition of accumulation of forskolin-stimulated cAMP level by measuring maximum activation incubated for 35 mins by chemiluminescence based assay relative to control. To be noted: filed as agonist. (In general: Changes in cAMP serve as a functional read-out for many G protein-coupled receptors.)

T1 sequence (P34972 whole entry): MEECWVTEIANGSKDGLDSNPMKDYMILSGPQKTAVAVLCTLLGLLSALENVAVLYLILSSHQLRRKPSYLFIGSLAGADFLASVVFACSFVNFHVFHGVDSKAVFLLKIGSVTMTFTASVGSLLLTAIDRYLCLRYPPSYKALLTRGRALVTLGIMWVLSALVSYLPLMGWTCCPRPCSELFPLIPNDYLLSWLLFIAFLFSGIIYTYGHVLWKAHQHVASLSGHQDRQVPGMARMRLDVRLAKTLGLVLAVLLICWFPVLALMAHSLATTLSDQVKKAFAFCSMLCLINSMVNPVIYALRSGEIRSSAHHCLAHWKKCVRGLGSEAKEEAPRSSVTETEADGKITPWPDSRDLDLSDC

For the molecule `CC(C)(CO)c1cc(NC(=O)N2CCCN2c2ccc(C(F)(F)F)cc2)on1`, the pEC50 in experiment [1] was 6.78; in experiment [2] it was 7.37. Besides, the Emax in experiment [3] stood at 99.7%.
For the molecule `CC(C)(C)c1cc(NC(=O)N2CCCN2c2ccc(C(F)(F)F)cc2)on1`, in experiment [1], the negative logarithm of the EC50 (pEC50) is less than 6.00. The Emax in experiment [3] was 114%.
For `Cc1nc(N2CCN(C)CC2)c2nc(-c3ccccc3Cl)n(C3CCOCC3)c2n1`, in experiment [3], the Emax came out at 52.6%.

One may read the pEC50 as −log10 of the EC50, conventionally taken in molar units. As usually defined, the Emax is the size of the effect at its maximum, as opposed to the concentration needed.

The values are drawn from ChEMBL document CHEMBL5104219, “Pyrazolidine Carboxamide Analogs as Selective Agonists of the Cannabinoid 2 Receptor” (ACS Med Chem Lett, 2022).
